Measured values published in patent US11608323B2 (SYNGENTA LIMITED, priority 2013, dated 2023).

Columns and labels:
Format in all cases: in vivo
ABUTH [1] = assay: Pre-emergence herbicidal activity, glasshouse pot test; conditions: rate 1000 g/Ha, evaluated after 13 days, scale 0-5
Procedure, shortened: (§1)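 Damage rated 13 days post-treatment on a 0-5 scale, 5 meaning total plant damage. Pots were sprayed pre-emergence, one day after sowing, with an acetone/water-derived aqueous spray containing 0.5% Tween 20. Plants grew under 14 h light, 65% humidity, 24/16 °C, watered twice daily.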

ALOMY [2] = assay: as above; conditions: rate 1000 g/Ha, evaluated after 13 days, scale 0-5
Procedure, shortened: as §1

AMARE [3] = assay: as above; conditions: rate 1000 g/Ha, evaluated after 13 days, scale 0-5
Procedure, shortened: as §1

ECHCG [4] = assay: as above; conditions: rate 1000 g/Ha, evaluated after 13 days, scale 0-5
Procedure, shortened: as §1

SETFA [5] = assay: as above; conditions: rate 1000 g/Ha, evaluated after 13 days, scale 0-5
Procedure, shortened: as §1

ZEAMX [6] = assay: as above; conditions: rate 1000 g/Ha, evaluated after 13 days, scale 0-5
Procedure, shortened: as §1

ABUTH [7] = assay: Post-emergence herbicidal activity, glasshouse pot test; conditions: Abutilon theophrasti; application post-emergence; rate 1000 g/Ha; evaluated after 13 days
Procedure, shortened: (§2)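 Pot-grown plants, 8 days after sowing, were sprayed with compound formulated in acetone/water (50:50) with 0.5% Tween 20. Glasshouse conditions 24/16° C day/night, 14 h light, 65% humidity; damage scored after 13 days on a 0 (none) to 5 (total) scale.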

ALOMY [8] = assay: as above; conditions: Alopecurus myosuroides; application post-emergence; rate 1000 g/Ha; evaluated after 13 days
Procedure, shortened: as §2

AMARE [9] = assay: as above; conditions: Amaranthus retroflexus; application post-emergence; rate 1000 g/Ha; evaluated after 13 days
Procedure, shortened: as §2

ECHCG [10] = assay: as above; conditions: Echinochloa crus-galli; application post-emergence; rate 1000 g/Ha; evaluated after 13 days
Procedure, shortened: as §2

SETFA [11] = assay: as above; conditions: Setaria faberi; application post-emergence; rate 1000 g/Ha; evaluated after 13 days
Procedure, shortened: as §2

ZEAMX [12] = assay: as above; conditions: Zea mays; application post-emergence; rate 1000 g/Ha; evaluated after 13 days
Procedure, shortened: as §2

SMILES: CC1C(O)N(c2ccc(Cl)cn2)C(=O)N1C (single isomer, unassigned) [Compound A26]
- ABUTH damage score, application pre-emergence (ABUTH [1]): 4
- ALOMY damage score, application pre-emergence (ALOMY [2]): 2
- AMARE damage score, application pre-emergence (AMARE [3]): 3
- ECHCG damage score, application pre-emergence (ECHCG [4]): 4
- SETFA damage score, application pre-emergence (SETFA [5]): 4
- ZEAMX damage score, application pre-emergence (ZEAMX [6]): 2
- Post-emergence herbicidal activity ABUTH (damage score 0-5) (ABUTH [7]): 4
- Post-emergence herbicidal activity ALOMY (damage score 0-5) (ALOMY [8]): 1
- Post-emergence herbicidal activity AMARE (damage score 0-5) (AMARE [9]): 3
- Post-emergence herbicidal activity ECHCG (damage score 0-5) (ECHCG [10]): 1
- Post-emergence herbicidal activity SETFA (damage score 0-5) (SETFA [11]): 1
- Post-emergence herbicidal activity ZEAMX (damage score 0-5) (ZEAMX [12]): 1

SMILES: CN1C(=O)N(c2cc(C(F)(F)F)ccn2)C(O)C1C(F)(F)F (stereo not drawn) [Compound A33, 4-hydroxy-1-methyl-5-(trifluoromethyl)-3-[4-(trifluoromethyl)-2-pyridyl]imidazolidin-2-one]
- ABUTH damage score, application pre-emergence (ABUTH [1]): 4
- ALOMY damage score, application pre-emergence (ALOMY [2]): 3
- AMARE damage score, application pre-emergence (AMARE [3]): 5
- ECHCG damage score, application pre-emergence (ECHCG [4]): 2
- SETFA damage score, application pre-emergence (SETFA [5]): 3
- ZEAMX damage score, application pre-emergence (ZEAMX [6]): 0
- Post-emergence herbicidal activity ABUTH (damage score 0-5) (ABUTH [7]): 5
- Post-emergence herbicidal activity ALOMY (damage score 0-5) (ALOMY [8]): 4
- Post-emergence herbicidal activity AMARE (damage score 0-5) (AMARE [9]): 3
- Post-emergence herbicidal activity ECHCG (damage score 0-5) (ECHCG [10]): 1
- Post-emergence herbicidal activity SETFA (damage score 0-5) (SETFA [11]): 2
- Post-emergence herbicidal activity ZEAMX (damage score 0-5) (ZEAMX [12]): 1

SMILES: COCCOC1C(O)N(c2cc(C(F)(F)F)ccn2)C(=O)N1C (stereo not drawn) [Compound A45]
- ABUTH damage score, application pre-emergence (ABUTH [1]): 5
- ALOMY damage score, application pre-emergence (ALOMY [2]): 2
- AMARE damage score, application pre-emergence (AMARE [3]): 5
- ECHCG damage score, application pre-emergence (ECHCG [4]): 3
- SETFA damage score, application pre-emergence (SETFA [5]): 3
- ZEAMX damage score, application pre-emergence (ZEAMX [6]): 1
- Post-emergence herbicidal activity ABUTH (damage score 0-5) (ABUTH [7]): 5
- Post-emergence herbicidal activity ALOMY (damage score 0-5) (ALOMY [8]): 2
- Post-emergence herbicidal activity AMARE (damage score 0-5) (AMARE [9]): 5
- Post-emergence herbicidal activity ECHCG (damage score 0-5) (ECHCG [10]): 3
- Post-emergence herbicidal activity SETFA (damage score 0-5) (SETFA [11]): 3
- Post-emergence herbicidal activity ZEAMX (damage score 0-5) (ZEAMX [12]): 1

SMILES: COc1ccc(-c2cnc(N3C(=O)N(C)C(C)C3O)cc2C(F)(F)F)cn1 (stereo not drawn) [Compound A21]
- ABUTH damage score, application pre-emergence (ABUTH [1]): 5
- ALOMY damage score, application pre-emergence (ALOMY [2]): 3
- AMARE damage score, application pre-emergence (AMARE [3]): 5
- ECHCG damage score, application pre-emergence (ECHCG [4]): 5
- SETFA damage score, application pre-emergence (SETFA [5]): 5
- ZEAMX damage score, application pre-emergence (ZEAMX [6]): 2
- Post-emergence herbicidal activity ABUTH (damage score 0-5) (ABUTH [7]): 5
- Post-emergence herbicidal activity ALOMY (damage score 0-5) (ALOMY [8]): 5
- Post-emergence herbicidal activity AMARE (damage score 0-5) (AMARE [9]): 5
- Post-emergence herbicidal activity ECHCG (damage score 0-5) (ECHCG [10]): 5
- Post-emergence herbicidal activity SETFA (damage score 0-5) (SETFA [11]): 5
- Post-emergence herbicidal activity ZEAMX (damage score 0-5) (ZEAMX [12]): 3

SMILES: Cc1ccc(-c2cnc(N3C(=O)N(C)C(C)C3O)cc2C(F)(F)F)cn1 (stereo not drawn) [Compound A24]
- ABUTH damage score, application pre-emergence (ABUTH [1]): 5
- ALOMY damage score, application pre-emergence (ALOMY [2]): 4
- AMARE damage score, application pre-emergence (AMARE [3]): 5
- ECHCG damage score, application pre-emergence (ECHCG [4]): 5
- SETFA damage score, application pre-emergence (SETFA [5]): 4
- ZEAMX damage score, application pre-emergence (ZEAMX [6]): 3
- Post-emergence herbicidal activity ABUTH (damage score 0-5) (ABUTH [7]): 5
- Post-emergence herbicidal activity ALOMY (damage score 0-5) (ALOMY [8]): 5
- Post-emergence herbicidal activity AMARE (damage score 0-5) (AMARE [9]): 5
- Post-emergence herbicidal activity ECHCG (damage score 0-5) (ECHCG [10]): 5
- Post-emergence herbicidal activity SETFA (damage score 0-5) (SETFA [11]): 5
- Post-emergence herbicidal activity ZEAMX (damage score 0-5) (ZEAMX [12]): 4

SMILES: CON1C(=O)N(c2cc(C(F)(F)F)ccn2)C(O)C1C (stereo not drawn) [Compound A8, 4-hydroxy-1-methoxy-5-methyl-3-[4-(trifluoromethyl)-2-pyridyl]imidazolidin-2-one]
- ABUTH damage score, application pre-emergence (ABUTH [1]): 5
- ALOMY damage score, application pre-emergence (ALOMY [2]): 4
- AMARE damage score, application pre-emergence (AMARE [3]): 5
- ECHCG damage score, application pre-emergence (ECHCG [4]): 4
- SETFA damage score, application pre-emergence (SETFA [5]): 5
- ZEAMX damage score, application pre-emergence (ZEAMX [6]): 3
- Post-emergence herbicidal activity ABUTH (damage score 0-5) (ABUTH [7]): 5
- Post-emergence herbicidal activity ALOMY (damage score 0-5) (ALOMY [8]): 5
- Post-emergence herbicidal activity AMARE (damage score 0-5) (AMARE [9]): 5
- Post-emergence herbicidal activity ECHCG (damage score 0-5) (ECHCG [10]): 5
- Post-emergence herbicidal activity SETFA (damage score 0-5) (SETFA [11]): 5
- Post-emergence herbicidal activity ZEAMX (damage score 0-5) (ZEAMX [12]): 4
